# Tests used:
# [1] = tested on: insulin-induced ACTH secretion; assay: Effect of peptide on insulin-induced ACTH secretion (insulin challenge); assay type: in vivo, Sprague-Dawley rats; settings: insulin 0.5 IU/kg intraperitoneally, 30 minutes, rats pretreated with saline by oral gavage or s.c. injection; from 16.8±0.8 pg/ml
# Protocol: As mentioned above, the administration of insulin can be used as a provocative challenge test to determine how an organism responds to stress and how the response can be manipulated. It was shown in FIG. 1 that, in rats, administration of insulin causes an increase in plasma concentrations of ACTH.
# Adult male Sprague-Dawley rats were used in these experiments. After an overnight fast, the peptide or saline was administered by oral gavage or by subcutaneous injection to the experimental subjects. Doses of the peptide ranged from 0.1 to 10 mg/kg by the oral route and 0.03 to 3.0 mg/kg by the subcutaneous route. […] all animals were treated with insulin (0.5 IU/kg) and were sacrificed by decapitation 30 minutes later. As above, trunk blood was collected in polypropylene tubes containing 400 μl of 10% EDTA at 4° C. Plasma was separated by centrifugation and stored at -80° C. until being used for ACTH determinations, ACTH concentrations were determined by RIA as described by Nicholson et al, cited above, using antiserum [IgG Corporation] and ^125 I-labelled ACTH [ICN Corporation].
# ACTH secretion = assay: Actions of insulin on ACTH secretion; assay type: in vivo, Sprague-Dawley rats; settings: 30 minutes, fasted male rats
# Protocol: To determine whether a drug can modify stress responses, the stress response itself must be characterized. To accomplish this goal, adult male Sprague-Dawley rats [Charles River, Kingston, N.Y.] were treated with increasing doses of insulin [Humulin, Eli Lilly Co.] ranging from 0.05 to 5 IU/kg or saline intraperitoneally after an overnight fast. Thirty minutes after administering insulin, the animals were sacrificed by decapitation and trunk blood was collected into polypropylene tubes containing 400 μl of 10% EDTA at 4° C. The plasma was separated by centrifugation and stored at -80° C. until being used for ACTH determinations. Plasma concentrations of ACTH were determined by radioimmunoassay using antiserum [IgG Corporation, Nashville, Tenn.] and ^125 I-labelled ACTH [ICN Corporation, Costa Mesa, Calif.] as described by Nicholson et al, Clin. Chem., 30:259-265 (1984).
substance,measurement,setting,value
"insulin: insulin [Humulin, Eli Lilly Co.], used as provocative challenge to raise plasma ACTH in rats",plasma ACTH concentrations,[1],approximately 200 pg/ml
same,plasma ACTH levels,ACTH secretion; insulin 0.05 IU/kg intraperitoneally,not elevated
same,plasma ACTH concentrations,ACTH secretion; insulin 0.1 IU/kg intraperitoneally,significantly greater than in vehicle treated controls
same,ACTH responses,ACTH secretion; insulin doses higher than 0.1 IU/kg up to 5 IU/kg intraperitoneally,commensuratively greater ACTH responses
